{
  "source": "patent US20230043035A1",
  "about": "“AGAROPHYTON CHILENSIS EXTRACT, RICH IN FREE FATTY ACIDS, AS A NUTRACEUTICAL OR NUTRITIONAL SUPPLEMENT, SUITABLE FOR MODULATING PPAR# ACTIVITY” (UNIVERSIDAD ANDRES BELLO, priority 2019, published 2023)",
  "key": {"[1]": {"molecular_target": "T1, PPARγ (Homo sapiens, UniProt P37231)", "T1 construct": "GAL4 (fusion partner); expressed in transfected cells; host or cells: PC12 cells, transiently transfected with Lipofectamine 2000", "T1 sequence (P37231 238-503 limits assumed)": "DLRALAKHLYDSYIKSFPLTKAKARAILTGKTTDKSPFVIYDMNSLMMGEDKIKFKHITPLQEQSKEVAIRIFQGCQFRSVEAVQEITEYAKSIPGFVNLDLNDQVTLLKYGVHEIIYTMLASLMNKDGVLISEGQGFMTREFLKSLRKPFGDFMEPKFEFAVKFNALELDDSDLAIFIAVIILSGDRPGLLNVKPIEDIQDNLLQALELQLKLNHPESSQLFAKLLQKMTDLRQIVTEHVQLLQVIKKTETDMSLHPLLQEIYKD", "experiment": "PPARγ activation assay (gal4 PPARγ reporter gene) in PC12 cells", "format": "cell-based", "details": "25 μM, n=10", "experimental": "In the PPARγ activation assay, an assay with the reporter gene gal4 PPARγ is performed, which allow assessing the activation of PPARγ induced by ligand, to which end concentrations of 30 and 60 μg/mL were used. PC12 cells were seeded in a 48-well plate at a density of 100,000 cells/well/250 μL of maintenance medium containing the medium RPMI1640® (Roswell Park Memorial Institute-1640 Medium) supplemented with 10% of horse serum (HS), 5% of fetal bovine serum (FBS) and 1× antibiotic/antimicotic (Ab-Am). Then, the DNA (0.8 μg luciferase plasmid (MH100tkLUC), 0.8 μg PPARγGAL4 plasmid and 0.053 μg β-galactosidase plasmid, (β-Gal)) were mixed in OptiMEM® (Opti-Minimun Essential Medium). This constitutes the DNA mixture. In parallel, lipofectamine 2000 was diluted in OptiMEM®. This constitutes the Lipofectamine® mixture. […] The lysate was collected, centrifuged for 1 minute at 14000 rpm, the β-galactosidase and luciferase activity in the supernatant was measured, and the times of PPARγ activation was calculated relative to the DMSO control (final concentration in the medium of 0.1%). In parallel, the activity of β-galactosidase was assessed (colorimetry). […] The activity results were expressed as times of increase in relation to the activity obtained with control cells (treated only with DMSO). […]"}, "[2]": {"tested_on": "3T3-L1 cells", "experiment": "Differentiation of 3T3-L1 cells into adipocytes, Oil Red O accumulation", "format": "cell-based", "details": "25 μM, 3T3-L1, day 10, n=4", "method": "(§1) In order to assess the effect of the claimed extracts on differentiation of fibroblasts into adipocytes, 3T3-L1 cells are cultured at low passage, avoiding cells from reaching confluence. […] Thereafter, the maintenance medium was replaced."}, "[3]": {"tested_on": "3T3-L1 cells", "experiment": "MTT viability assay in 3T3-L1 cells of the differentiation assay", "format": "cell-based", "details": "25 μM, 3T3-L1, n=3", "method": "In order to assess the effect of the claimed extracts on differentiation of fibroblasts into adipocytes, 3T3-L1 cells are cultured at low passage, avoiding cells from reaching confluence. […] Thereafter, the maintenance medium was replaced. […] After removing MTT, DMSO (99.9%) was added to lyse cells and dissolve MTT/MTT formazan. In order to assess absorbance at 570 nm and 620 nm in a spectrophotometer, 100 μl of this solution were moved to a 96-well plate. The difference between absorbances was calculated, and the survival relative to the control (DMSO) was determined."}, "[4]": {"tested_on": "fabp4 gene", "experiment": "mRNA expression of adipocyte differentiation marker fabp4 in 3T3-L1 cells (qPCR)", "format": "cell-based", "details": "25 μM, 3T3-L1, day 7, n=3", "method": "as §1"}, "[5]": {"tested_on": "cortical neurons", "experiment": "Neuroprotection assay: cortical neurons damaged with oligomycin A, MTT viability", "format": "cell-based, rat", "text": "To assess the neuroprotective capacity of Extract B, a model of neuronal damage caused by chemical ischemia was used, preferably the model of damage caused by oligomycin A. Oligomycin A is a macrolide that blocks oxidative phosphorylation, inhibiting mitochondrial ATP synthase.\nIn order to assess the neuroprotective capacity, a primary culture of cortical neurons of stage E18 rat embryos was used. To this end, adult female rats were acquired, pregnant at stage 18, from the CINBIOT bioterium of the Faculty of Biological Science, Pontificia Universidad Católica de Chile. […]\nOn the 9th of culture, the challenge with oligomycin A was carried out. […] Thereafter, neuronal viability was determined, by removing the entire culture medium, it was washed once with PBS and incubated with 0.5 mg/mL of MTT in neurobasal medium without phenol red at 37° C. for 2 hours to establish the mitochondrial activity, wherein MTT (yellow) is transformed into MTT formazan (dark blue), when reduced by live cells. […] Subsequently, 100 μl of this solution were moved to a 96-wel plate to measure absorbance at 570 nm and 620 nm in spectrophotometer. The difference between absorbances (570-620) was calculated, and the survival was estimated relative to the control treated with DMSO and without damage caused by oligomycin A. The presence of MTT formazan is quantified at 570 nm. […]"}},
  "data": [
    {"compound": "CC(C)C[C@H](NC(=O)OCC1c2ccccc2-c2ccccc21)C(=O)O", "note": "[FMOC-Leu]", "values": [
      {"measurement": "PPARγ transcriptional activity, times higher than negative control", "setting": "[1]", "result": 14.7, "unit": "times"},
      {"measurement": "Oil Red O (neutral lipid) accumulation, times relative to control", "setting": "[2]", "result": 1.1},
      {"measurement": "cell survival (MTT) relative to control (DMSO)", "setting": "[3]", "result": 100, "unit": "%"},
      {"measurement": "fabp4 mRNA expression, times relative to control DMSO", "setting": "[4]", "result": 1.7, "unit": "times"}
    ]},
    {"compound": "CC[C@@H]1/C=C/C=C/C[C@H](C)[C@H](O)[C@](C)(O)C(=O)[C@H](C)[C@@H](O)[C@H](C)C(=O)[C@H](C)[C@@H](O)[C@H](C)/C=C/C(=O)O[C@H]2[C@@H](C)[C@@H](CC1)O[C@@]1(CC[C@@H](C)[C@@H](C[C@H](C)O)O1)[C@@H]2C", "note": "[oligomycin A, Oligomycin A]", "values": [
      {"measurement": "neuronal viability after oligomycin A, % of undamaged DMSO control", "setting": "[5]; oligomycin A 2 μM 30 min, no extract, rat cortical neurons", "result": 22.5, "unit": "%"}
    ]},
    {"compound": "vitamin E", "values": [
      {"measurement": "protection against oligomycin A", "setting": "[5]; 10 μM alone, data not shown", "result": "does not provide protection"}
    ]}
  ]
}
